From doi:10.1101/2022.12.19.520966v1 (biorxiv, 2022)
Numbering of substitutions follows the chain as printed.

Tests used:
Test in all cases: HTRF IP1 accumulation
Assay type in all cases: cell-based
[1] = molecular target: T1, T1R2/T1R3 (human sweet taste receptor) (Homo sapiens, UniProt Q7RTX0+Q8TE23); conditions: agonist; Galpha16gus44 co-transfected; 0.05 M LiCl, 5 min exposure
T1 sequence (Q8TE23 20-839): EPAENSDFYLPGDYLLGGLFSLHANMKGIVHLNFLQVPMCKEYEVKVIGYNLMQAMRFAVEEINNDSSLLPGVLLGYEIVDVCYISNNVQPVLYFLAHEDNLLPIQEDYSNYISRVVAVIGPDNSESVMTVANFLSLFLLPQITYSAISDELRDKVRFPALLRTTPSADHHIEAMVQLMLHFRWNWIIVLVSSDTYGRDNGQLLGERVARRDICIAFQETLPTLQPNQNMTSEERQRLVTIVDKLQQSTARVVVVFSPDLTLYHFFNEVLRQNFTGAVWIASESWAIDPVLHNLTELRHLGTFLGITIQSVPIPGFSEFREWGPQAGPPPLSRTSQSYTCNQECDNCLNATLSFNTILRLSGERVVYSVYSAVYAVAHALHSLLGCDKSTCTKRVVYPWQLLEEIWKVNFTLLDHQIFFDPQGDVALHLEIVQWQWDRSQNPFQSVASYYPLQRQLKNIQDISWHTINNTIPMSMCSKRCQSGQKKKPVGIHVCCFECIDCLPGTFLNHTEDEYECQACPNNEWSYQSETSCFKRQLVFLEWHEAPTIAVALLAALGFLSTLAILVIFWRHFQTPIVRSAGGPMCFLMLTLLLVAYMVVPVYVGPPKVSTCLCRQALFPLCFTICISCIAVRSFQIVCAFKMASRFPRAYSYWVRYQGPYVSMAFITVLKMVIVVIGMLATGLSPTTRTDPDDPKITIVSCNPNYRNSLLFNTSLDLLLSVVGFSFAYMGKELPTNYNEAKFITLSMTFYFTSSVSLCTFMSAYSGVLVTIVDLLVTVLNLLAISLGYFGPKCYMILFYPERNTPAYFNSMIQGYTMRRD
T1 sequence (Q7RTX0 21-852): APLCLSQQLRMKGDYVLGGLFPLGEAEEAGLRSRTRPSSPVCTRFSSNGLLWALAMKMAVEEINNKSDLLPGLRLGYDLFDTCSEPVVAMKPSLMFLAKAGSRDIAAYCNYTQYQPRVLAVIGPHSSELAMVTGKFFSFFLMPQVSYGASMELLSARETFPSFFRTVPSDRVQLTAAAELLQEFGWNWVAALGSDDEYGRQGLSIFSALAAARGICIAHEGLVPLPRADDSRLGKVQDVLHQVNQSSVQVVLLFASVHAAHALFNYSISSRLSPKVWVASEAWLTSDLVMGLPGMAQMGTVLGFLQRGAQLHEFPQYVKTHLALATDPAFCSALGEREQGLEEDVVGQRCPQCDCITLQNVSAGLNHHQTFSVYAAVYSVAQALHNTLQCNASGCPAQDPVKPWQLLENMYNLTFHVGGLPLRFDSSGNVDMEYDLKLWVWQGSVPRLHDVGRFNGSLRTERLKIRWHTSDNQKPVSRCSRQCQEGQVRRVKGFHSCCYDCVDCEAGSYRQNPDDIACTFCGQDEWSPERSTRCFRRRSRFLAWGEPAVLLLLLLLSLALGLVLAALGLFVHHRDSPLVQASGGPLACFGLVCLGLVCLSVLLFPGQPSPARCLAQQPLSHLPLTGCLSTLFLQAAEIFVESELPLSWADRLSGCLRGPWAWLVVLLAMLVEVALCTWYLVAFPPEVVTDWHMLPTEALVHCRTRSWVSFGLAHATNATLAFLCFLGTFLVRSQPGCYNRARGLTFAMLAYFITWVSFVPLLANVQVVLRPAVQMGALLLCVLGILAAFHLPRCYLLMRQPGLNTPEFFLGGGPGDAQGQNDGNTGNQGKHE

[2] = molecular target: T2, T1R2/T1R3 (human sweet taste receptor) (Homo sapiens, UniProt Q7RTX0+Q8TE23, Q8TE23:R317G/Q8TE23:I486V); conditions: agonist; Galpha16gus44 co-transfected; 0.05 M LiCl, 5 min exposure
T2 sequence (Q8TE23 20-839 R317G/I486V): T1 sequence (Q8TE23 20-839) with R298G, I467V
T2 sequence (Q7RTX0 21-852): T1 sequence (Q7RTX0 21-852)

[3] = molecular target: T1, T1R2/T1R3 (human sweet taste receptor); conditions: agonist; Galpha16gus44 co-transfected; 0.05 M LiCl, 5 min exposure; unreliable

## OC[C@@H]1OC(O)[C@@H](O)[C@H](O)[C@H]1O (stereo partly drawn) [L-glucose]
[1]
  EC50: 2 mM
[2]
  EC50: ~15 mM

## OC[C@H]1OC(O)[C@H](O)[C@@H](O)[C@@H]1O (stereo partly drawn) [D-glucose]
[3]
  Emax: 100%
